In paper PMC5678437, “A new antagonist for CCR4 attenuates allergic lung inflammation in a mouse model of asthma” (Scientific Reports, 2017):

How the values were obtained:
CCR3 [1] = target: T1, CCR3 (Homo sapiens, UniProt P51677); assay: Chemotaxis inhibition assay for receptor specificity, HEK293-CCR3; assay type: cell-based; details: 0.2, 1, 5, 25 μM, 30 min pretreatment
T1 sequence (P51677 2-355 limits assumed): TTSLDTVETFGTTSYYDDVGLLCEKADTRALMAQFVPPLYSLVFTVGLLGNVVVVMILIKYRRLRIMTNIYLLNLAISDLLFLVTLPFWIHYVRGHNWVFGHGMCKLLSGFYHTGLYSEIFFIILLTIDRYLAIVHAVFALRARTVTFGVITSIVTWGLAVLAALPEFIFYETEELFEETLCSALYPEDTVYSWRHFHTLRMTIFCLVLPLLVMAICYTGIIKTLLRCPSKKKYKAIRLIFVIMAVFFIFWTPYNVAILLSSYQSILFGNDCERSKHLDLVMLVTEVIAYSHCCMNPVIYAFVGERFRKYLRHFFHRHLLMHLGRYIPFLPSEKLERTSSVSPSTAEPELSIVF
Procedure: (§1) HEK293 cells were transfected with different chemokine receptors. The corresponding chemokines of different receptors were placed in the lower chambers. The transfected cells were pretreated with different concentrations of Compound 8a or 1‰ DMSO for 30 min at a density of 1 × 10^6 cells/ml and added to the upper chambers, the final concentration of the compound is: 0.2 μM, 1 μM, 5 μM, and 25 μM, respectively.

CXCR1 = target: T2, CXCR1 (Homo sapiens, UniProt P25024); assay: Chemotaxis inhibition assay for receptor specificity, HEK293-CXCR1; assay type: cell-based; details: 0.2, 1, 5, 25 μM, 30 min pretreatment
T2 construct: expressed in transfected cells; host or cells: HEK293; plasmid gift of Dr. Philip M. Murphy (NIAID, NIH)
T2 sequence (P25024 1-350): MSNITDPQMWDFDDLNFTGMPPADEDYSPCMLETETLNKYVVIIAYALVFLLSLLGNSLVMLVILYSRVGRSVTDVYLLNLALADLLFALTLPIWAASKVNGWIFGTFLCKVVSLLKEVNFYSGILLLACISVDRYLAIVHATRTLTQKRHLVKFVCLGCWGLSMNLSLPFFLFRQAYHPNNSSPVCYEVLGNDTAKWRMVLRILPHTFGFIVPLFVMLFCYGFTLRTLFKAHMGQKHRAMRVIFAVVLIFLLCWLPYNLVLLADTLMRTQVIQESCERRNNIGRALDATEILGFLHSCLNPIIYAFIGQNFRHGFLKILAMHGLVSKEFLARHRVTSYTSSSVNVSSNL
Procedure: as §1

[2] = system: OVA-induced asthmatic mice; assay: BALF total cell and cell differential counts in OVA-induced asthmatic mice; assay type: in vivo, BALB/c mice; details: for total cells count in BALF: vs vehicle
Procedure: Male BALB/c 6 week old mice were purchased from the Experimental Animal Center of Zhejiang University. All mice were raised in a specific pathogen-free animal facility. All animal experiments were carried out according to the guidelines for the care and use of laboratory animals and were approved by the ethics committee of Zhejiang University and Peking University, China.
Mice were sensitized and challenged with chicken egg OVA (sigma-Aldrich, St Louis, MO, USA) as described in details previously. Briefly, after sensitized by intraperitoneal injection of 100 μl (80 μg) OVA in 100 μl alum (Pierce, Rockford, IL, USA) on days 0 and 14, mice were exposure to 1% OVA aerosols for 40 min on days 24–26. Control mice were injected intraperitoneally with saline and exposed to saline aerosols.
Compound 8a was dissolved in saline with DMSO (0.5%). Half an hour before each OVA challenge, the groups of mice treated with various doses of compound 8a (0.2, 1, 5 mg) inhaled aerosolized compound 8a for 45 min on days 24–26. Compound 8a aerosols were produced by using a Plexiglas chamber and ultrasonic nebulizer. While the budesonide (BUD) group were administered with 5 mg budesonide, and the vehicle group were treated with compound-dissolved vehicle. The Saline was treated as the control.
Twenty-four hours after the last exposure, collection of BALF and cell count was performed as previously described. Briefly, lavage was performed by instilling 0.4 ml PBS into lungs and with drawn to collect the cells three times. Total BALF cells were counted. After be centrifuged, the remaining cells was spun onto glass slides, and stained with Wright–Giemsa stain. Differential counts were evaluated by counting 400 total cells.

CCR2B = target: T3, CCR2B (Homo sapiens, UniProt P41597); assay: Chemotaxis inhibition assay for receptor specificity, HEK293-CCR2B; assay type: cell-based; details: 0.2, 1, 5, 25 μM, 30 min pretreatment
T3 construct: expressed in transfected cells; host or cells: HEK293, pcDB-CCR2B plasmid made in the authors' laboratory
T3 sequence (P41597 1-360 isoform P41597-2): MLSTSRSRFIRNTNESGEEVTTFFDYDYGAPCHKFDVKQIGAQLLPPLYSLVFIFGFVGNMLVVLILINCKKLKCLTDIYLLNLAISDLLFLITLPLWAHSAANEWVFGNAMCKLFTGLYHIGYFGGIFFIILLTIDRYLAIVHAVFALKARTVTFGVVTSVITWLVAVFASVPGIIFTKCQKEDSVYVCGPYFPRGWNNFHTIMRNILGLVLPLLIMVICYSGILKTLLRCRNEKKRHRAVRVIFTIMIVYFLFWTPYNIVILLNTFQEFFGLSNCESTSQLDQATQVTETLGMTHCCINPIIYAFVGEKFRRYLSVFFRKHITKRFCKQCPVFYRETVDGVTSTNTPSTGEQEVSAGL
Procedure: as §1

CCR3 [3] = target: T4, CCR3 (Homo sapiens, UniProt P51677); assay: Chemotaxis assay for receptor specificity, HEK293-CCR3; assay type: cell-based; details: compound as chemoattractant in lower chamber, 0.2, 1, 5, 25 μM
T4 sequence (P51677 1-355): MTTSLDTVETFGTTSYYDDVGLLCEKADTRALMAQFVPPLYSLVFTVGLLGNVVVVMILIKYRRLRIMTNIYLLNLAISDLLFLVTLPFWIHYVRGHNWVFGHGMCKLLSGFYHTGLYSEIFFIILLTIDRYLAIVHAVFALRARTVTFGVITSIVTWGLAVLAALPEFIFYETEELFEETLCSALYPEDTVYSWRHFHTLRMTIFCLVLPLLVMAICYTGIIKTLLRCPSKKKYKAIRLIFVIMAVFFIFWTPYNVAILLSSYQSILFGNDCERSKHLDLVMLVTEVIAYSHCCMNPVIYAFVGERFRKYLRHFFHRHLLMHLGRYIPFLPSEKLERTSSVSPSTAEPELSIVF
Procedure: HEK293 cells were transfected with different chemokine receptors. Compound 8a with DMSO was diluted to 0.2 mM, 1 mM, 5 mM and 25 mM, and then we used RPMI 1640 medium containing 0.1% BSA for dilution. The final concentration is: 0.2 μM, 1 μM, 5 μM and 25 μM. DMSO was also diluted 1000-fold with 0.1% BSA RPMI 1640 medium. Chemokines was also diluted to an appropriate concentration. The dilutions of Compound 8a, 1‰ DMSO, the corresponding chemokines of different receptors and 0.1% BSA RPMI 1640 medium were placed in the lower chambers (27.5 μl/well). The transfected HEK293 cells were resuspended in the same medium at a density of 1 × 10^6 cells/ml and added to the upper chambers (55 μl/well).

[4] = 5 mg inhaled aerosol, compared with vehicle treated group
[5] = compound 8a 0.2, 1, 5 mg, budesonide 5 mg, inhaled aerosol

`O=C(C1CCCCN1)N1CCN(c2nc(Cl)cc(NCc3ccc(Cl)cc3Cl)n2)CC1` (centres unmarked) [compound 8a, {4-[4-Chloro-6-(2,4-dichloro-benzylamino)-pyrimidin-2-yl]-piperazin-1-yl}-piperidin-2-yl-methanone] was tested, and the “inhibition of chemotaxis of HEK293-CCR3 to its ligand” value (CCR3 [1]) was “few influence”, the “inhibition of chemotaxis of HEK293-CXCR1 to its ligand” value (CXCR1) was “few influence” and the “total cells count in BALF” value ([2]; 0.2 mg inhaled aerosol) was “marginal”. For the same compound, the “total cells count in BALF” value ([2]; 1 mg inhaled aerosol) was “remarkably inhibitory effect”, the “absolute number of eosinophils in BALF” value [2, 4] was “significantly decreased” and the “absolute number of lymphocytes in BALF” value [2, 4] was “significantly decreased”. The “total cells count in BALF” value ([2]; 5 mg inhaled aerosol) was “remarkably inhibitory effect”, the “number of macrophages in BALF” value [2, 5] was “neither compound 8a nor budesonide affect” and the “number of neutrophils in BALF” value [2, 5] was “neither compound 8a nor budesonide affect”. For the same compound, the “inhibition of chemotaxis of HEK293-CCR2B to its ligand” value (CCR2B) was “few influence” and the “chemotaxis effect of the compound on HEK293-CCR3” value (CCR3 [3]) was “didn’t exert chemotaxis effects”.
